Test results from ChEMBL document CHEMBL1201862, “PubChem BioAssay data set” (2004).
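All cell lines were grown in 96-well plates and treated with compound for 48 hours. Here, GI50 denotes the concentration required for 50% inhibition of growth.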 Activity calls are given as the source filed them. No stated cut-off is given here; in the data, active = GI50 up to about 1.1 µM and inactive = higher.

Columns and labels:
Assay in all cases: inhibition of tumour cell growth, NCI panel, 48 h
ACHN = tested on: ACHN
DLD-1 = tested on: DLD-1
EKVX = tested on: EKVX
HCT-116 = tested on: HCT-116
HCT-15 = tested on: HCT-15
HOP-62 = tested on: HOP-62
HT-29 = tested on: HT-29
K562 = tested on: K562
KM12 = tested on: KM12
Malme-3M = tested on: Malme-3M
OVCAR-3 = tested on: OVCAR-3
OVCAR-8 = tested on: OVCAR-8
SF-268 = tested on: SF-268
SK-MEL-28 = tested on: SK-MEL-28
SK-OV-3 = tested on: SK-OV-3
SN12C = tested on: SN12C
UACC-62 = tested on: UACC-62
CAKI-1 = tested on: CAKI-1
OVCAR-5 = tested on: OVCAR-5
SK-MEL-5 = tested on: SK-MEL-5

Compound | GI50 (ACHN) | GI50 (DLD-1) | GI50 (EKVX) | GI50 (HCT-116) | GI50 (HCT-15) [µM] | GI50 (HOP-62) | GI50 (HT-29) | GI50 (K562) | GI50 (KM12) | GI50 (Malme-3M) | GI50 (OVCAR-3) | GI50 (OVCAR-8) | GI50 (SF-268) | GI50 (SK-MEL-28) | GI50 (SK-OV-3) | GI50 (SN12C) | GI50 (UACC-62) | GI50 (CAKI-1) | GI50 (OVCAR-5) | GI50 (SK-MEL-5)
CC1(C)CC(=O)C2=C(C1)S/C(=C1/SC3=C(S1)C(=O)CC(C)(C)C3)S2 | > 251 µM (inactive) | > 251 µM (inactive) | > 251 µM (inactive) | > 251 µM (inactive) | > 251 | > 251 µM (inactive) | > 251 µM (inactive) | > 251 µM (inactive) | > 251 µM (inactive) | > 251 µM (inactive) | > 251 µM (inactive) | > 251 µM (inactive) | > 251 µM (inactive) | > 251 µM (inactive) | > 251 µM (inactive) | > 251 µM (inactive) | > 251 µM (inactive) | – | – | –
CC(=O)OCC1=C(C)C[C@H]([C@@H](COC(C)=O)C2CCC3C4C[C@H]5O[C@]56CC=CC(=O)[C@]6(C)C4CC[C@@]32C)OC1=O (stereo partly specified) | 0.302 µM (active) | – | 0.465 µM (active) | 0.097 µM (active) | 0.083 | 0.634 µM (active) | 0.123 µM (active) | 0.0106 µM (active) | 0.138 µM (active) | 0.274 µM (active) | 0.109 µM (active) | 0.15 µM (active) | 0.379 µM (active) | 0.3 µM (active) | 1.79 µM (inactive) | 0.444 µM (active) | 0.258 µM (active) | 0.671 µM (active) | 1.23 µM (inactive) | 0.269 µM (active)
C1=CC(N(c2ccccc2)C2C=CCCC2)CCC1 (stereo unspecified) | > 100 µM (inactive) | > 100 µM (inactive) | > 100 µM (inactive) | 70.1 µM (inactive) | > 100 | – | > 100 µM (inactive) | > 100 µM (inactive) | – | – | – | > 100 µM (inactive) | > 100 µM (inactive) | > 100 µM (inactive) | > 100 µM (inactive) | > 100 µM (inactive) | > 100 µM (inactive) | > 100 µM (inactive) | – | 84.1 µM (inactive)
COc1ccc(C[C@@H](CO)NC2=C(C#N)CCC2)cc1 | 49.9 µM (inactive) | – | 35.7 µM (inactive) | 38.5 µM (inactive) | 40.4 | 56.5 µM (inactive) | 33.4 µM (inactive) | 33.4 µM (inactive) | 19.5 µM (inactive) | 34.7 µM (inactive) | 36.8 µM (inactive) | 64.4 µM (inactive) | 58.9 µM (inactive) | 74.1 µM (inactive) | 49.1 µM (inactive) | > 100 µM (inactive) | 31.5 µM (inactive) | 43 µM (inactive) | 71.6 µM (inactive) | 34.9 µM (inactive)
CS(=N)(=O)CCC(N)P(=O)(O)O (stereo unspecified) | > 100 µM (inactive) | – | > 100 µM (inactive) | > 100 µM (inactive) | > 100 | > 100 µM (inactive) | > 100 µM (inactive) | > 100 µM (inactive) | > 100 µM (inactive) | > 100 µM (inactive) | > 100 µM (inactive) | > 100 µM (inactive) | > 100 µM (inactive) | > 100 µM (inactive) | > 100 µM (inactive) | > 100 µM (inactive) | > 100 µM (inactive) | > 100 µM (inactive) | > 100 µM (inactive) | > 100 µM (inactive)
c1ccc2c(c1)nnn2C1CCCCO1 (stereo unspecified) | > 100 µM (inactive) | – | > 100 µM (inactive) | > 100 µM (inactive) | > 100 | > 100 µM (inactive) | > 100 µM (inactive) | > 100 µM (inactive) | > 100 µM (inactive) | > 100 µM (inactive) | > 100 µM (inactive) | > 100 µM (inactive) | > 100 µM (inactive) | > 100 µM (inactive) | > 100 µM (inactive) | > 100 µM (inactive) | > 100 µM (inactive) | > 100 µM (inactive) | > 100 µM (inactive) | > 100 µM (inactive)
Cc1cc(C)nc(NS(=O)(=O)c2ccc(NC(=O)c3ccc4nc5ccccc5c(Nc5ccc(S(=O)(=O)Nc6nc(C)cc(C)n6)cc5)c4c3)cc2)n1 | > 100 µM (inactive) | – | > 100 µM (inactive) | 57 µM (inactive) | > 100 | > 100 µM (inactive) | 64.9 µM (inactive) | 38 µM (inactive) | 30.3 µM (inactive) | 67.5 µM (inactive) | > 100 µM (inactive) | > 100 µM (inactive) | 58.6 µM (inactive) | > 100 µM (inactive) | 59.2 µM (inactive) | 46.5 µM (inactive) | 66.4 µM (inactive) | > 100 µM (inactive) | > 100 µM (inactive) | > 100 µM (inactive)
Nc1ncnc2c1ncn2C1CCC(COS(N)(=O)=O)C1 (stereo unspecified) | > 100 µM (inactive) | – | > 100 µM (inactive) | 57.5 µM (inactive) | > 100 | > 100 µM (inactive) | > 100 µM (inactive) | > 100 µM (inactive) | > 100 µM (inactive) | > 100 µM (inactive) | 80.7 µM (inactive) | > 100 µM (inactive) | > 100 µM (inactive) | > 100 µM (inactive) | > 100 µM (inactive) | > 100 µM (inactive) | > 100 µM (inactive) | > 100 µM (inactive) | > 100 µM (inactive) | > 100 µM (inactive)
